Assay results published in the NIST ThermoML archive (doi:10.1016/j.fluid.2009.03.002).

Experiment: cn = amount concentration of the nth substance listed, in mol/dm3
Conditions: 101 kPa, Liquid, Direct current cell with electrodes

[I-].[Na+] [sodium iodide] + CO
molar conductivity [S·m2/mol]
Conditions	293.15 K	298.15 K	303.15 K
c1 = 0.0007005	0.008344	0.008814	0.0098
c1 = 0.001005	0.008236	0.008686	0.00954
c1 = 0.001541	0.00804	0.008464	0.009246
c1 = 0.001778	0.007969	0.008407	0.009148
c1 = 0.001998	–	0.008329	–
c1 = 0.002202	–	–	0.009014
c1 = 0.002391	0.00784	0.00825	0.00896
c1 = 0.002569	0.007786	0.008171	0.008907
c1 = 0.003036	0.007688	–	–
c1 = 0.003173	–	0.008019	0.00852
c1 = 0.003425	–	0.007956	0.00846
c1 = 0.003541	0.0076	–	–
c1 = 0.00365	–	0.007907	0.0084
c1 = 0.003754	0.007556	–	–
c1 = 0.004122	0.0075	–	–
c1 = 0.004203	–	0.007791	0.00825
c1 = 0.004684	0.007431	–	–
c1 = 0.004742	–	0.007697	–
c1 = 0.004852	–	–	0.00804
c1 = 0.004954	–	0.007663	–
c1 = 0.005049	–	–	0.008
c1 = 0.005094	0.007356	–	–
c1 = 0.005504	–	0.007571	–
c1 = 0.005623	–	–	0.00782
c1 = 0.005651	0.007288	–	–
c1 = 0.006031	–	0.007494	–
c1 = 0.00618	0.007194	–	–
c1 = 0.006252	–	–	0.0076
c1 = 0.006529	0.00715	–	–

CC(=O)[O-].[Na+] [sodium ethanoate] + CO
molar conductivity [S·m2/mol]
Conditions	293.15 K	298.15 K	303.15 K
c1 = 0.0007037	0.007613	0.00835	0.00893
c1 = 0.00101	0.007497	0.00824	0.00857
c1 = 0.00129	–	0.008107	–
c1 = 0.001548	0.007306	–	0.00804
c1 = 0.001786	0.007275	0.007949	0.00786
c1 = 0.002007	–	0.007893	0.0078
c1 = 0.002402	0.007159	0.007788	0.00754
c1 = 0.00258	0.007131	0.007732	0.0074
c1 = 0.003188	0.006994	0.007579	0.00714
c1 = 0.003441	0.006947	0.007529	0.00696
c1 = 0.003667	0.006913	0.007475	0.00692
c1 = 0.004222	0.006825	0.007371	0.0068
c1 = 0.004764	0.006759	0.007263	–
c1 = 0.004874	–	–	0.00643
c1 = 0.004976	0.006732	0.007194	–
c1 = 0.005072	–	–	0.00634
c1 = 0.005529	–	0.007125	–
c1 = 0.005591	0.006636	–	–
c1 = 0.005649	–	–	0.0062
c1 = 0.005756	0.006636	–	–
c1 = 0.005898	–	0.007044	–
c1 = 0.005982	–	–	0.00612
c1 = 0.006002	–	0.00701	–
c1 = 0.006253	0.006557	–	–
c1 = 0.006281	–	–	0.00612
c1 = 0.006493	0.00653	–	–
